Test results as given in the supplement of paper PMC10307832.

What was measured:
Experiment in all cases: relative viability (nuclei count vs DMSO), 5 days (fraction); higher = more cells survive
Avagacestat + Luminespib = compound: NC(=O)[C@@H](CCC(F)(F)F)N(Cc1ccc(-c2ncon2)cc1F)S(=O)(=O)c1ccc(Cl)cc1 [Avagacestat] + CCNC(=O)c1noc(-c2cc(C(C)C)c(O)cc2O)c1-c1ccc(CN2CCOCC2)cc1 [Luminespib] (partner 0.01 µM)
Method in brief: (§1)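 For relative viability, nuclei counts in treated wells were divided by those in vehicle wells. Lung cancer cell lines had been pin-tool dosed in 1536-well plates the day after seeding and cultured for 5 days, then fixed and stained in one step (final 0.05% Triton X-100, 1% formaldehyde, 1 ug/ml Hoechst) and imaged at 4×. Doses were one drug alone or a fixed anchor-drug dose plus five library-drug doses (not always all listed) in √10 steps, and values are duplicate-plate medians.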

Avagacestat + Alpelisib = compound: NC(=O)[C@@H](CCC(F)(F)F)N(Cc1ccc(-c2ncon2)cc1F)S(=O)(=O)c1ccc(Cl)cc1 [Avagacestat] + Cc1nc(NC(=O)N2CCC[C@H]2C(N)=O)sc1-c1ccnc(C(C)(C)C(F)(F)F)c1 [Alpelisib] (partner 2 µM)
Method in brief: as §1

Avagacestat + Dasatinib = compound: NC(=O)[C@@H](CCC(F)(F)F)N(Cc1ccc(-c2ncon2)cc1F)S(=O)(=O)c1ccc(Cl)cc1 [Avagacestat] + Cc1nc(Nc2ncc(C(=O)Nc3c(C)cccc3Cl)s2)cc(N2CCN(CCO)CC2)n1 [Dasatinib] (partner 0.075 µM)
Method in brief: as §1

Avagacestat + Tozasertib = compound: NC(=O)[C@@H](CCC(F)(F)F)N(Cc1ccc(-c2ncon2)cc1F)S(=O)(=O)c1ccc(Cl)cc1 [Avagacestat] + Cc1cc(Nc2cc(N3CCN(C)CC3)nc(Sc3ccc(NC(=O)C4CC4)cc3)n2)n[nH]1 [Tozasertib] (partner 0.1 µM)
Method in brief: as §1

Cell Line	relative viability (Avagacestat + Luminespib; first compound 0.08 µM)	relative viability (Avagacestat + Luminespib; first compound 0.253 µM)	relative viability (Avagacestat + Luminespib; first compound 0.8 µM)	relative viability (Avagacestat + Luminespib; first compound 2.53 µM)	relative viability (Avagacestat + Luminespib; first compound 8 µM)	relative viability (Avagacestat + Alpelisib; first compound 0.08 µM)	relative viability (Avagacestat + Alpelisib; first compound 0.253 µM)	relative viability (Avagacestat + Alpelisib; first compound 0.8 µM)	relative viability (Avagacestat + Alpelisib; first compound 2.53 µM)	relative viability (Avagacestat + Alpelisib; first compound 8 µM)	relative viability (Avagacestat + Dasatinib; first compound 0.08 µM)	relative viability (Avagacestat + Dasatinib; first compound 0.253 µM)	relative viability (Avagacestat + Dasatinib; first compound 0.8 µM)	relative viability (Avagacestat + Dasatinib; first compound 2.53 µM)	relative viability (Avagacestat + Dasatinib; first compound 8 µM)	relative viability (Avagacestat + Tozasertib; first compound 0.08 µM)	relative viability (Avagacestat + Tozasertib; first compound 0.253 µM)	relative viability (Avagacestat + Tozasertib; first compound 0.8 µM)	relative viability (Avagacestat + Tozasertib; first compound 2.53 µM)	relative viability (Avagacestat + Tozasertib; first compound 8 µM)
LK-2	0.185	0.176	0.198	0.154	0.169	1.51	1.61	0.949	1.02	1	0.26	0.224	0.247	0.271	0.267	0.188	0.147	0.185	0.183	0.172
LOU-NH91	0.311	0.341	0.31	0.331	0.342	0.712	0.724	0.779	0.608	0.738	0.612	0.509	0.618	0.443	0.493	0.621	0.63	0.648	0.609	0.624
LU99A	0.308	0.199	0.305	0.247	0.213	0.659	0.498	0.529	0.51	0.483	0.483	0.542	0.455	0.444	0.471	0.246	0.238	0.244	0.235	0.273
LXF-289	0.794	0.675	0.912	0.686	0.603	1.08	1.15	1.04	1.1	0.949	0.196	0.183	0.168	0.191	0.152	0.19	0.119	0.211	0.131	0.212
NCI-H23	0.229	0.235	0.215	–	0.223	0.912	0.766	0.768	0.683	0.688	0.859	0.875	0.937	0.733	0.912	0.378	0.535	0.406	0.362	0.359
NCI-H322M	0.862	0.875	0.927	0.695	0.638	0.762	0.787	0.904	0.633	0.54	0.281	0.242	0.247	0.251	0.257	0.491	0.51	0.5	0.454	0.474
NCI-H358	0.449	0.467	0.368	0.412	0.244	0.938	0.908	0.872	0.711	0.777	0.163	0.159	0.164	0.155	0.148	0.106	0.0996	0.102	0.101	0.107
NCI-H441	0.441	0.403	0.327	0.361	0.301	0.92	0.761	1.05	0.973	0.986	0.518	0.471	0.541	0.532	0.454	0.968	0.715	0.529	0.683	0.483
NCI-H460	0.0352	0.0325	0.0362	0.0361	0.0325	0.724	0.538	0.688	0.472	0.357	0.625	0.59	0.747	0.402	0.475	0.616	0.651	0.492	0.156	0.155
NCI-H520	0.223	0.241	0.239	0.218	0.23	1.16	0.868	0.74	0.7	0.715	0.267	0.16	0.158	0.168	0.162	0.417	0.48	0.42	0.3	0.36
NCI-H596	1.19	0.876	1.35	0.924	0.756	0.584	0.482	0.479	0.466	0.491	0.592	0.651	0.654	0.451	0.648	0.979	0.784	0.774	0.754	0.827
NCI-H647	0.184	0.148	0.146	0.15	0.12	1.46	0.994	1.3	0.959	0.884	0.195	0.188	0.232	0.118	0.147	–	0.319	0.199	0.263	0.0556
NCI-H650	0.91	0.965	0.92	0.831	0.818	1.12	1.57	1.21	1.32	1.19	0.499	0.398	0.481	0.456	0.451	0.872	0.973	0.761	0.65	0.702
NCI-H661	0.983	1.08	0.946	0.913	1.01	0.803	0.664	1.08	–	0.589	1.05	0.962	1.07	0.891	0.852	0.356	0.381	0.361	0.363	0.37
NCI-H727	0.36	0.343	0.289	0.355	0.39	0.749	0.682	0.695	0.467	0.558	0.35	0.355	0.5	0.369	0.41	0.614	0.686	0.592	0.489	0.489
NCI-H838	0.363	0.256	0.233	0.254	0.191	1.19	1.18	1.06	0.906	0.814	0.293	0.285	0.328	0.309	0.253	0.277	0.286	0.269	0.276	0.269
